Reference: patent US7964531B2, “3-phenoxy-4-pyridazinol derivatives and herbicidal composition containing the same” (Mitsui Chemicals Agro, Inc., priority 2001, dated 2011)

Columns and labels:
Assay type in all cases: in vivo
[1] = tested on: barnyardgrass; assay: Test Example 2: herbicidal effects (soil treatment); conditions: dosage 2 kg/a; soil treatment the day after seeding; judged after 21 days
Procedure, shortened: (§1)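 Pre-emergence test: seeds sown in upland soil in 150 cm^2 pots in a greenhouse, wettable powder diluted in water applied to soil surface the day after sowing at a predetermined dosage. Growth inhibition scored 21 days after treatment on a 0–5 scale (0: 0–10% to 5: 91–100%).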

[2] = tested on: indian mustard (Brassica juncea (L.) Czern. et Coss); assay: as above; conditions: dosage 2 kg/a; soil treatment the day after seeding; judged after 21 days
Procedure, shortened: as §1

[3] = tested on: Eleocharis kuroguwai; assay: Test Example 4: herbicidal effects of mixed wettable powder, paddy-field pot test; conditions: no second compound, after 25 days
Procedure, shortened: (§2)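 Flooded greenhouse pots of paddy soil were sown in the top 1 cm with dormancy-broken weed seeds and planted with tubers, and 2.2-leaf rice was transplanted. Three days later, water-diluted wettable powder was applied at set dosages, and growth inhibition was rated 25 days after that on a 0 (0–15%) to 5 (96–100%) scale.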

[4] = tested on: Sagittaria pygmaea; assay: as above; conditions: no second compound, after 25 days
Procedure, shortened: as §2

[5] = tested on: barnyardgrass (Echinochloa oryzicola Vasing.); assay: as above; conditions: no second compound, after 25 days
Procedure, shortened: as §2

[6] = tested on: Scirpus joncoides; assay: as above; conditions: no second compound, after 25 days
Procedure, shortened: as §2

[7] = tested on: annual broad-leaved weeds (Lindernia spp. and Rotala indica); assay: as above; conditions: no second compound, after 25 days
Procedure, shortened: as §2

[8] = tested on: Cyperus serotinus; assay: as above; conditions: no second compound, after 25 days
Procedure, shortened: as §2

[9] = tested on: annual broad-leaved weeds (Lindernia spp., Rotala indica); assay: Test Example 1: herbicidal effects, paddy-field pot test; conditions: wettable powder applied 3 days after transplanting, judged after 25 days
Procedure, shortened: (§3)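 Paddy soil pots sown with dormancy-broken weed seeds mixed into the top 1 cm, plus germinated Cyperus serotinus tubers and transplanted 2.2-leaf rice seedlings, grown flooded in a greenhouse. Water-diluted wettable powder applied 3 days after transplanting; growth inhibition scored 25 days later on a 0–5 scale (0 = 0–10%, 5 = 91–100%).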

[10] = tested on: barnyardgrass (Echinochloa oryzicola Vasing.); assay: as above; conditions: wettable powder applied 3 days after transplanting, judged after 25 days
Procedure, shortened: as §3

[11] = tested on: Scirpus joncoides; assay: as above; conditions: wettable powder applied 3 days after transplanting, judged after 25 days
Procedure, shortened: as §3

[12] = tested on: Cyperus serotinus; assay: as above; conditions: wettable powder applied 3 days after transplanting, judged after 25 days
Procedure, shortened: as §3

[13] = tested on: transplanted paddy-field rice; assay: Test Example 4: crop injury against transplanted paddy-field rice; conditions: no second compound, after 25 days
Procedure, shortened: as §2

[14] = tested on: transplanted paddy-field rice; assay: Test Example 1: crop injury against transplanted paddy-field rice; conditions: wettable powder applied 3 days after transplanting, judged after 25 days
Procedure, shortened: as §3

[15] = tested on: tall morningglory; assay: Test Example 3: herbicidal effects (foliar treatment); conditions: chemical dosage 2 kg/a; foliar treatment at 10 to 15 cm; judged after 14 days
Description: (§4) Judgment Standard • 0: Growth inhibition rate; 0 to 10% • 1: Growth inhibition rate; 11 to 30% • 2: Growth inhibition rate; 31 to 50% • 3: Growth inhibition rate; 51 to 70% • 4: Growth inhibition rate; 71 to 90% • 5: Growth inhibition rate; 91 to 100%.
(§5) Upland soil was filled in 150 cm^2 pot, and seeds of velvetleaf, tall morningglory, indian mustard, black nightshade redroot pigweed were sowed, and grown in a greenhouse. After the weeds were grown with 10 to 15 cm or so, a predetermined chemical dosage of the wettable powder prepared in accordance with Preparation example 1 was diluted with water containing 0.05% of GRAMIN-S and applied as a foliar treatment. After 14 days from the treatment, herbicidal effects were judged in accordance with the judgment standard of Test example 1, and the results were shown in Table 4. Incidentally, “-” in the table means no test was carried out.

[16] = tested on: redroot pigweed; assay: as above; conditions: chemical dosage 2 kg/a; foliar treatment at 10 to 15 cm; judged after 14 days
Description: as §4, §5

[17] = tested on: indian mustard; assay: as above; conditions: chemical dosage 2 kg/a; foliar treatment at 10 to 15 cm; judged after 14 days
Description: as §4, §5

[18] = tested on: black nightshade; assay: as above; conditions: chemical dosage 2 kg/a; foliar treatment at 10 to 15 cm; judged after 14 days
Description: as §4, §5

[19] = tested on: velvetleaf; assay: as above; conditions: chemical dosage 2 kg/a; foliar treatment at 10 to 15 cm; judged after 14 days
Description: as §4, §5

SMILES: Cc1cccc(C2CC2)c1Oc1nnc(Cl)cc1O [Example 23]
- Herbicidal effects Barnyard-grass [1]: 4 (Growth inhibition rate; 71 to 90%)
- Herbicidal effects indian mustard [2]: 5 (Growth inhibition rate; 91 to 100%)
- Herbicidal effects Eleocharis kuroguwai ([3]; derivative 5 g/a): 2 (Growth inhibition rate; 36 to 55%)
- Herbicidal effects Eleocharis kuroguwai ([3]; derivative 10 g/a): 3 (Growth inhibition rate; 56 to 75%)
- Herbicidal effects Sagittaria pygmaea ([4]; derivative 5 g/a): 5 (Growth inhibition rate; 96 to 100%)
- Herbicidal effects Sagittaria pygmaea ([4]; derivative 10 g/a): 5 (Growth inhibition rate; 96 to 100%)
- Herbicidal effects Barnyard grass ([5]; derivative 5 g/a): 2 (Growth inhibition rate; 36 to 55%)
- Herbicidal effects Barnyard grass ([5]; derivative 10 g/a): 3 (Growth inhibition rate; 56 to 75%)
- Herbicidal effects Scirpus joncoides ([6]; derivative 5 g/a): 5 (Growth inhibition rate; 96 to 100%)
- Herbicidal effects Scirpus joncoides ([6]; derivative 10 g/a): 5 (Growth inhibition rate; 96 to 100%)
- Herbicidal effects Broad leaf ([7]; derivative 5 g/a): 5 (Growth inhibition rate; 96 to 100%)
- Herbicidal effects Broad leaf ([7]; derivative 10 g/a): 5 (Growth inhibition rate; 96 to 100%)
- Herbicidal effects Cyperus serotinus ([8]; derivative 5 g/a): 5 (Growth inhibition rate; 96 to 100%)
- Herbicidal effects Cyperus serotinus ([8]; derivative 10 g/a): 5 (Growth inhibition rate; 96 to 100%)
- Herbicidal effects Broad leaf ([9]; chemical dosage 10 g/a): 5 (Growth inhibition rate; 91 to 100%)
- Herbicidal effects Broad leaf ([9]; chemical dosage 20 g/a): 5 (Growth inhibition rate; 91 to 100%)
- Herbicidal effects Barnyard grass ([10]; chemical dosage 10 g/a): 3 (Growth inhibition rate; 51 to 70%)
- Herbicidal effects Barnyard grass ([10]; chemical dosage 20 g/a): 4 (Growth inhibition rate; 71 to 90%)
- Herbicidal effects Scirpus joncoides ([11]; chemical dosage 10 g/a): 5 (Growth inhibition rate; 91 to 100%)
- Herbicidal effects Scirpus joncoides ([11]; chemical dosage 20 g/a): 5 (Growth inhibition rate; 91 to 100%)
- Herbicidal effects Cyperus serotinus ([12]; chemical dosage 10 g/a): 5 (Growth inhibition rate; 91 to 100%)
- Herbicidal effects Cyperus serotinus ([12]; chemical dosage 20 g/a): 5 (Growth inhibition rate; 91 to 100%)
- Crop injury against transplanted rice ([13]; derivative 5 g/a): 0 (Growth-inhibition rate; 0 to 15%)
- Crop injury against transplanted rice ([13]; derivative 10 g/a): 0 (Growth-inhibition rate; 0 to 15%)
- Crop injury against transplanted rice ([14]; chemical dosage 10 g/a): 0 (Growth inhibition rate; 0 to 10%)
- Crop injury against transplanted rice ([14]; chemical dosage 20 g/a): 2 (Growth inhibition rate; 31 to 50%)
- Herbicidal effects Tall Morningglory [15]: 5 (Growth inhibition rate; 91 to 100%)
- Herbicidal effects Redroot pigweed [16]: 4 (Growth inhibition rate; 71 to 90%)
- Herbicidal effects indian mustard [17]: 5 (Growth inhibition rate; 91 to 100%)
- Herbicidal effects Black Night-shade [18]: 5 (Growth inhibition rate; 91 to 100%)
- Herbicidal effects Velvet-leaf [19]: 4 (Growth inhibition rate; 71 to 90%)
